Experiments:
Assay in all cases: relative viability (nuclei count vs DMSO), 5 days (fraction); higher = more cells survive
UMC-11 = tested on: UMC-11
Method in brief: (§1)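 Relative viability equals treated-well nuclei counts divided by vehicle-well nuclei counts. Counts came from 4× images of lung cancer cell lines grown in 1536-well plates for 5 days after pin-tool dosing on the day after seeding. Dosing used one drug alone or a fixed anchor-drug dose plus five library-drug doses (not always all listed) in √10 steps, and values are medians of duplicate plates.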

BEN = tested on: BEN
Method in brief: as §1

NCI-H2126 = tested on: NCI-H2126
Method in brief: as §1

HCC-78 = tested on: HCC-78
Method in brief: as §1

NCI-H1395 = tested on: NCI-H1395
Method in brief: as §1

SW 900 = tested on: SW 900
Method in brief: as §1

LC-2-ad = tested on: LC-2-ad
Method in brief: as §1

EMC-BAC-2 = tested on: EMC-BAC-2
Method in brief: as §1

LOU-NH91 = tested on: LOU-NH91
Method in brief: as §1

COR-L 105 = tested on: COR-L 105
Method in brief: as §1

RERF-LC-KJ = tested on: RERF-LC-KJ
Method in brief: as §1

HOP-62 = tested on: HOP-62
Method in brief: as §1

LXF-289 = tested on: LXF-289
Method in brief: as §1

201T = tested on: 201T
Method in brief: as §1

H3255 = tested on: H3255
Method in brief: as §1

NCI-H1993 = tested on: NCI-H1993
Method in brief: as §1

NCI-H2087 = tested on: NCI-H2087
Method in brief: as §1

NCI-H2170 = tested on: NCI-H2170
Method in brief: as §1

HARA = tested on: HARA
Method in brief: as §1

SK-MES-1 = tested on: SK-MES-1
Method in brief: as §1

NCI-H650 = tested on: NCI-H650
Method in brief: as §1

LU99A = tested on: LU99A
Method in brief: as §1

Compound: CN1CCN(CCOc2cc(OC3CCOCC3)c3c(Nc4c(Cl)ccc5c4OCO5)ncnc3c2)CC1 [Saracatinib] + CC(=O)c1c(C)c2cnc(Nc3ccc(N4CCNCC4)cn3)nc2n(C2CCCC2)c1=O [Palbociclib] (partner 0.5 µM)
- relative viability (UMC-11; first compound 0.02 µM): 0.339
- relative viability (UMC-11; first compound 0.2 µM): 0.374
- relative viability (UMC-11; first compound 0.6325 µM): 0.38
- relative viability (UMC-11; first compound 2 µM): 0.309
- relative viability (BEN; first compound 0.02 µM): 0.513
- relative viability (BEN; first compound 0.2 µM): 0.407
- relative viability (BEN; first compound 0.6325 µM): 0.485
- relative viability (BEN; first compound 2 µM): 0.435
- relative viability (NCI-H2126; first compound 0.02 µM): 0.358
- relative viability (NCI-H2126; first compound 0.2 µM): 0.344
- relative viability (NCI-H2126; first compound 0.6325 µM): 0.363
- relative viability (NCI-H2126; first compound 2 µM): 0.349
- relative viability (HCC-78; first compound 0.02 µM): 0.461
- relative viability (HCC-78; first compound 0.2 µM): 0.406
- relative viability (HCC-78; first compound 0.6325 µM): 0.45
- relative viability (HCC-78; first compound 2 µM): 0.342
- relative viability (NCI-H1395; first compound 0.02 µM): 0.606
- relative viability (NCI-H1395; first compound 0.2 µM): 0.562
- relative viability (NCI-H1395; first compound 0.6325 µM): 0.598
- relative viability (NCI-H1395; first compound 2 µM): 0.516
- relative viability (SW 900; first compound 0.02 µM): 0.548
- relative viability (SW 900; first compound 0.2 µM): 0.432
- relative viability (SW 900; first compound 0.6325 µM): 0.383
- relative viability (SW 900; first compound 2 µM): 0.293
- relative viability (LC-2-ad; first compound 0.02 µM): 0.571
- relative viability (LC-2-ad; first compound 0.2 µM): 0.448
- relative viability (LC-2-ad; first compound 0.6325 µM): 0.504
- relative viability (LC-2-ad; first compound 2 µM): 0.434
- relative viability (EMC-BAC-2; first compound 0.02 µM): 0.507
- relative viability (EMC-BAC-2; first compound 0.2 µM): 0.483
- relative viability (EMC-BAC-2; first compound 0.6325 µM): 0.517
- relative viability (EMC-BAC-2; first compound 2 µM): 0.511
- relative viability (LOU-NH91; first compound 0.02 µM): 0.487
- relative viability (LOU-NH91; first compound 0.2 µM): 0.551
- relative viability (LOU-NH91; first compound 0.6325 µM): 0.569
- relative viability (LOU-NH91; first compound 2 µM): 0.49
- relative viability (COR-L 105; first compound 0.02 µM): 0.384
- relative viability (COR-L 105; first compound 0.2 µM): 0.332
- relative viability (COR-L 105; first compound 0.6325 µM): 0.38
- relative viability (COR-L 105; first compound 2 µM): 0.321
- relative viability (RERF-LC-KJ; first compound 0.02 µM): 1.05
- relative viability (RERF-LC-KJ; first compound 0.2 µM): 1.05
- relative viability (RERF-LC-KJ; first compound 0.6325 µM): 1.01
- relative viability (RERF-LC-KJ; first compound 2 µM): 1.06
- relative viability (HOP-62; first compound 0.02 µM): 0.452
- relative viability (HOP-62; first compound 0.2 µM): 0.396
- relative viability (HOP-62; first compound 0.6325 µM): 0.459
- relative viability (HOP-62; first compound 2 µM): 0.477
- relative viability (LXF-289; first compound 0.02 µM): 0.621
- relative viability (LXF-289; first compound 0.2 µM): 0.582
- relative viability (LXF-289; first compound 0.6325 µM): 0.601
- relative viability (LXF-289; first compound 2 µM): 0.571
- relative viability (201T; first compound 0.02 µM): 0.358
- relative viability (201T; first compound 0.2 µM): 0.311
- relative viability (201T; first compound 0.6325 µM): 0.323
- relative viability (201T; first compound 2 µM): 0.26
- relative viability (H3255; first compound 0.02 µM): 0.329
- relative viability (H3255; first compound 0.2 µM): 0.31
- relative viability (H3255; first compound 0.6325 µM): 0.336
- relative viability (H3255; first compound 2 µM): 0.297
- relative viability (NCI-H1993; first compound 0.02 µM): 0.65
- relative viability (NCI-H1993; first compound 0.2 µM): 0.584
- relative viability (NCI-H1993; first compound 0.6325 µM): 0.701
- relative viability (NCI-H1993; first compound 2 µM): 0.523
- relative viability (NCI-H2087; first compound 0.02 µM): 0.252
- relative viability (NCI-H2087; first compound 0.2 µM): 0.255
- relative viability (NCI-H2087; first compound 0.6325 µM): 0.303
- relative viability (NCI-H2087; first compound 2 µM): 0.179
- relative viability (NCI-H2170; first compound 0.02 µM): 0.39
- relative viability (NCI-H2170; first compound 0.2 µM): 0.39
- relative viability (NCI-H2170; first compound 0.6325 µM): 0.441
- relative viability (NCI-H2170; first compound 2 µM): 0.354
- relative viability (HARA; first compound 0.02 µM): 0.234
- relative viability (HARA; first compound 0.2 µM): 0.208
- relative viability (HARA; first compound 0.6325 µM): 0.269
- relative viability (HARA; first compound 2 µM): 0.161
- relative viability (SK-MES-1; first compound 0.02 µM): 0.3
- relative viability (SK-MES-1; first compound 0.2 µM): 0.31
- relative viability (SK-MES-1; first compound 0.6325 µM): 0.309
- relative viability (SK-MES-1; first compound 2 µM): 0.256
- relative viability (NCI-H650; first compound 0.02 µM): 0.336
- relative viability (NCI-H650; first compound 0.2 µM): 0.314
- relative viability (NCI-H650; first compound 0.6325 µM): 0.33
- relative viability (NCI-H650; first compound 2 µM): 0.307
- relative viability (LU99A; first compound 0.02 µM): 0.413
- relative viability (LU99A; first compound 0.2 µM): 0.336
- relative viability (LU99A; first compound 0.6325 µM): 0.349
- relative viability (LU99A; first compound 2 µM): 0.31

Reference: the supplement of paper PMC10307832
